Target: MCH receptor (Homo sapiens, UniProt Q99705)
Experiment: High throughput functional screening FLIPR/FDSS6000: inhibition of MCH-evoked intracellular Ca2+ changes
Type: cell-based
Settings: class by percent of control at 10^-7 M or IC50
Summary of the method: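 Constitutively active non-endogenous MCH-R cells; Fluo4-AM 4 μM, 2.5 mM probenecid, 1 hr, 37° C; cpd 3 min, 37° C; MCH 50 nM (antagonist mode); kinetic Ca2+ read Ex488/Em530, 290 s.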

SMILES | class
CN(C)c1nc(N[C@H]2CC[C@@H](CNC(=S)Nc3ccccc3I)CC2)nc2ccccc12 [compound 643] | 3 (Class 3: The value of percent of control at 10^−7 M was more than 60% or the value of IC50 was more than 200 nM.)
COc1cc([N+](=O)[O-])ccc1NC(=S)NC[C@H]1CC[C@@H](Nc2nc(N(C)C)c3ccccc3n2)CC1 [compound 644] | 3 (Class 3: The value of percent of control at 10^−7 M was more than 60% or the value of IC50 was more than 200 nM.)
COc1ccc(C)cc1NC(=S)NC[C@H]1CC[C@@H](Nc2nc(N(C)C)c3ccccc3n2)CC1 [compound 645] | 3 (Class 3: The value of percent of control at 10^−7 M was more than 60% or the value of IC50 was more than 200 nM.)
CN(C)c1nc(N[C@H]2CC[C@@H](CNC(=S)Nc3cccc(SC(F)(F)F)c3)CC2)nc2ccccc12 [compound 646] | 3 (Class 3: The value of percent of control at 10^−7 M was more than 60% or the value of IC50 was more than 200 nM.)
CN(C)c1nc(N[C@H]2CC[C@@H](CNC(=S)Nc3cc(Cl)cc(Cl)c3)CC2)nc2ccccc12 [compound 647] | 3 (Class 3: The value of percent of control at 10^−7 M was more than 60% or the value of IC50 was more than 200 nM.)
CN(C)c1nc(N[C@H]2CC[C@@H](CNC(=S)Nc3cc(F)cc(F)c3)CC2)nc2ccccc12 [compound 648] | 3 (Class 3: The value of percent of control at 10^−7 M was more than 60% or the value of IC50 was more than 200 nM.)
CN(C)c1nc(N[C@H]2CC[C@@H](CNC(=S)Nc3cccc(C#N)c3)CC2)nc2ccccc12 [compound 649, N-(3-ciyanophenyl)-N′-[(cis-4-{[4-(dimethylamino)quinazolin-2-yl]amino}cyclohexyl)methyl]thiourea] | 3 (Class 3: The value of percent of control at 10^−7 M was more than 60% or the value of IC50 was more than 200 nM.)
CN(C)c1nc(N[C@H]2CC[C@@H](CNC(=S)Nc3cccc(F)c3)CC2)nc2ccccc12 [compound 650] | 3 (Class 3: The value of percent of control at 10^−7 M was more than 60% or the value of IC50 was more than 200 nM.)
CN(C)c1nc(N[C@H]2CC[C@@H](CNC(=S)Nc3cccc(I)c3)CC2)nc2ccccc12 [compound 651] | 3 (Class 3: The value of percent of control at 10^−7 M was more than 60% or the value of IC50 was more than 200 nM.)
COc1cccc(NC(=S)NC[C@H]2CC[C@@H](Nc3nc(N(C)C)c4ccccc4n3)CC2)c1 [compound 652] | 3 (Class 3: The value of percent of control at 10^−7 M was more than 60% or the value of IC50 was more than 200 nM.)
CN(C)c1nc(N[C@H]2CC[C@@H](CNC(=S)Nc3ccc(OC(F)F)cc3)CC2)nc2ccccc12 [compound 653] | 3 (Class 3: The value of percent of control at 10^−7 M was more than 60% or the value of IC50 was more than 200 nM.)
CN(C)c1nc(N[C@H]2CC[C@@H](CNC(=S)Nc3ccc(OC(F)(F)F)cc3)CC2)nc2ccccc12 [compound 654] | 3 (Class 3: The value of percent of control at 10^−7 M was more than 60% or the value of IC50 was more than 200 nM.)
CN(C)c1nc(N[C@H]2CC[C@@H](CNC(=S)Nc3ccc(C(F)(F)F)cc3)CC2)nc2ccccc12 [compound 655] | 3 (Class 3: The value of percent of control at 10^−7 M was more than 60% or the value of IC50 was more than 200 nM.)
CN(C)c1nc(N[C@H]2CC[C@@H](CNC(=S)Nc3ccc(SC(F)(F)F)cc3)CC2)nc2ccccc12 [compound 656] | 3 (Class 3: The value of percent of control at 10^−7 M was more than 60% or the value of IC50 was more than 200 nM.)
CN(C)c1nc(N[C@H]2CC[C@@H](CNC(=S)Nc3ccc(Br)cc3Cl)CC2)nc2ccccc12 [compound 657] | 3 (Class 3: The value of percent of control at 10^−7 M was more than 60% or the value of IC50 was more than 200 nM.)
CN(C)c1nc(N[C@H]2CC[C@@H](CNC(=S)Nc3ccc(Br)cc3F)CC2)nc2ccccc12 [compound 658] | 3 (Class 3: The value of percent of control at 10^−7 M was more than 60% or the value of IC50 was more than 200 nM.)
CN(C)c1nc(N[C@H]2CC[C@@H](CNC(=S)Nc3ccc(Cl)c(C(F)(F)F)c3)CC2)nc2ccccc12 [compound 659] | 3 (Class 3: The value of percent of control at 10^−7 M was more than 60% or the value of IC50 was more than 200 nM.)
CN(C)c1nc(N[C@H]2CC[C@@H](CNC(=S)Nc3ccc(F)c(C(F)(F)F)c3)CC2)nc2ccccc12 [compound 660] | 3 (Class 3: The value of percent of control at 10^−7 M was more than 60% or the value of IC50 was more than 200 nM.)

SMILES | class
CN(C)c1nc(N[C@H]2CC[C@@H](CNC(=S)Nc3ccc(I)cc3)CC2)nc2ccccc12 [compound 661] | 3 (Class 3: The value of percent of control at 10^−7 M was more than 60% or the value of IC50 was more than 200 nM.)
Cc1ccc(Cl)cc1NC(=S)NC[C@H]1CC[C@@H](Nc2nc(N(C)C)c3ccccc3n2)CC1 [compound 662] | 2 (Class 2: The value of percent of control at 10^−7 M was from 40% to 60% or the value of IC50 was from 50 nM to 200 nM.)
CN(C)c1nc(N[C@H]2CC[C@@H](CNC(=S)NC3C[C@@H]4CC[C@H]3C4)CC2)nc2ccccc12 (stereo partly drawn) [compound 663, N-[(1S,4R)-bicyclo[2.2.1]hept-2-yl]-N′-[(cis-4-{[4-(dimethylamino)quinazolin-2-yl]amino}cyclohexyl)methyl]thiourea] | 2 (Class 2: The value of percent of control at 10^−7 M was from 40% to 60% or the value of IC50 was from 50 nM to 200 nM.)
CN(C)c1nc(N[C@H]2CC[C@@H](CNC(=S)Nc3ccc(NC(=O)OC(C)(C)C)cc3)CC2)nc2ccccc12 [compound 664] | 3 (Class 3: The value of percent of control at 10^−7 M was more than 60% or the value of IC50 was more than 200 nM.)
COc1ccc(CCNC(=S)NC[C@H]2CC[C@@H](Nc3nc(N(C)C)c4ccccc4n3)CC2)cc1OC [compound 665, N-[2-(3,4-dimethoxyphenyl)ethyl]-N′-[(cis-4-{[4-(dimethylamino)quinazolin-2-yl]amino}cyclohexyl)methyl]thiourea] | 2 (Class 2: The value of percent of control at 10^−7 M was from 40% to 60% or the value of IC50 was from 50 nM to 200 nM.)
CN(C)c1nc(N[C@H]2CC[C@@H](CNC(=S)NCCc3ccc(Cl)cc3)CC2)nc2ccccc12 [compound 666] | 3 (Class 3: The value of percent of control at 10^−7 M was more than 60% or the value of IC50 was more than 200 nM.)
CN(C)c1nc(N[C@H]2CC[C@@H](CNC(=S)Nc3cc(Cl)c(Cl)c(Cl)c3Cl)CC2)nc2ccccc12 [compound 667] | 3 (Class 3: The value of percent of control at 10^−7 M was more than 60% or the value of IC50 was more than 200 nM.)
CN(C)c1nc(N[C@H]2CC[C@@H](CNC(=S)Nc3cc(Cl)c(Cl)cc3Cl)CC2)nc2ccccc12 [compound 668] | 3 (Class 3: The value of percent of control at 10^−7 M was more than 60% or the value of IC50 was more than 200 nM.)
CN(C)c1nc(N[C@H]2CC[C@@H](CNC(=S)Nc3c(Cl)cc(Cl)cc3Cl)CC2)nc2ccccc12 [compound 670, N-[(cis-4-{[4-(dimethylamino)quinazolin-2-yl]amino}cyclohexyl)methyl]-N′-(2,4,6-trichlorophenyl)thiourea] | 2 (Class 2: The value of percent of control at 10^−7 M was from 40% to 60% or the value of IC50 was from 50 nM to 200 nM.)
CN(C)c1nc(N[C@H]2CC[C@@H](CNC(=S)Nc3c(F)cc(F)cc3F)CC2)nc2ccccc12 [compound 671] | 3 (Class 3: The value of percent of control at 10^−7 M was more than 60% or the value of IC50 was more than 200 nM.)
Cc1cc(C)c(NC(=S)NC[C@H]2CC[C@@H](Nc3nc(N(C)C)c4ccccc4n3)CC2)c(C)c1 [compound 672, N-[(cis-4-{[4-(dimethylamino)quinazolin-2-yl]amino}cyclohexyl)methyl]-N′-mesitylthiourea] | 2 (Class 2: The value of percent of control at 10^−7 M was from 40% to 60% or the value of IC50 was from 50 nM to 200 nM.)
Cc1ccc(NC(=S)NC[C@H]2CC[C@@H](Nc3nc(N(C)C)c4ccccc4n3)CC2)c(C)c1 [compound 673] | 3 (Class 3: The value of percent of control at 10^−7 M was more than 60% or the value of IC50 was more than 200 nM.)
CCc1cccc(CC)c1NC(=S)NC[C@H]1CC[C@@H](Nc2nc(N(C)C)c3ccccc3n2)CC1 [compound 674, N-(2,6-diethylphenyl)-N′-[(cis-4-{[4-(dimethylamino)quinazolin-2-yl]amino}cyclohexyl)methyl]thiourea] | 1 (Class 1: The value of percent of control at 10^−7 M was less than 40% or the value of IC50 was less than 50 nM.)
CC(C)c1cccc(C(C)C)c1NC(=S)NC[C@H]1CC[C@@H](Nc2nc(N(C)C)c3ccccc3n2)CC1 [compound 675] | 2 (Class 2: The value of percent of control at 10^−7 M was from 40% to 60% or the value of IC50 was from 50 nM to 200 nM.)
Cc1ccc(NC(=S)NC[C@H]2CC[C@@H](Nc3nc(N(C)C)c4ccccc4n3)CC2)c(Br)c1 [compound 676] | 3 (Class 3: The value of percent of control at 10^−7 M was more than 60% or the value of IC50 was more than 200 nM.)
CN(C)c1nc(N[C@H]2CC[C@@H](CNC(=S)Nc3cc(C(F)(F)F)ccc3Cl)CC2)nc2ccccc12 [compound 677] | 3 (Class 3: The value of percent of control at 10^−7 M was more than 60% or the value of IC50 was more than 200 nM.)
CN(C)c1nc(N[C@H]2CC[C@@H](CNC(=S)NCc3ccccc3Cl)CC2)nc2ccccc12 [compound 678] | 3 (Class 3: The value of percent of control at 10^−7 M was more than 60% or the value of IC50 was more than 200 nM.)
CCc1cccc(C)c1NC(=S)NC[C@H]1CC[C@@H](Nc2nc(N(C)C)c3ccccc3n2)CC1 [compound 679] | 2 (Class 2: The value of percent of control at 10^−7 M was from 40% to 60% or the value of IC50 was from 50 nM to 200 nM.)

Reference: patent US20070010671A1, “Novel quinazoline derivatives and methods of treatment related to the use thereof” (priority 2003, published 2007)
